Consider two compounds from patent US8470889B2 (TRT Pharma Inc., priority 2008, dated 2013).

One series concerns LNCaP cells. The conditions noted are these: human, 72 h.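 Note: MTT formazan absorbance at 600 nm read after 72 h of compound exposure, IC50 fitted by nonlinear regression of dose-response curves, samples run in triplicate.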
The next series deals with DU145 cells. The experiment in a line: IL-6 secretion, Human IL-6 ELISA. It counts as cell-based. Conditions: DU-145 cells, 24 hr. A general note: An ELISA detects its analyte on a solid surface through an enzyme-linked reagent.
Series [1] concerns NF-κB-dependent luciferase activity induced by expression of IKKi, TBK1, IKKb and p65. The experiment in a line: NF-κB-dependent luciferase activity in HEK293 cells. The format is cell-based. Conditions: 24 h, FIG. 11A-C. As to the method: Compound 10 inhibits IKKβ, IKKε and TBK1 and suppresses NF-κB activation. […] HEK293 cells were transiently transfected with NF-κB-Luc or ISRE-Luc, co-transfected with plasmid encoding IKKi, TBK1, IKKb, p65 or IRF3 (5D), using Lipofectamine™ 2000 reagent (Invitrogen). The transfected cells were treated with DMSO vehicle and test compounds at designated doses for 24 h. Luciferase activity was evaluated using Dual Luciferase Assay System (Promega) and expressed as fold of induction related to the basal level of the reporter gene after normalization with cotransfected Renilla relative light units.
Now referring to FIG. 18, the impact of compounds 10, and SC345, SC346 and SC347 on the NF-κB-dependent luciferase activity induced by expression of TBK1 and IKKβ. HEK293 cells were transiently transfected with NF-κB-Luc, co-transfected with plasmid encoding TBK1 or IKKβ, using Lipofectamine™ 2000 reagent (Invitrogen). The transfected cells were treated with DMSO vehicle and test compounds at 2.5 μM for 24 h. Luciferase activity was evaluated using Dual Luciferase Assay System (Promega) and expressed as fold of induction related to the basal level of the reporter gene after normalization with cotransfected Renilla relative light units.

pIC50: −log10 of the molar value.

`CC1(C)CCC(O)C=C1/C=C/C(=O)/C=C/c1cnc2ccccc2c1` (stereo not drawn) [Compound B95]: the negative logarithm of the IC50 (pIC50) (usually −log10 of the IC50, conventionally taken in molar units) in the series on LNCaP cells was 6.20.
In the case of `CC1(C)CCC(O)C=C1/C=C/C(=O)/C=C/c1csc2ccccc12` (stereo not drawn) [Compound B92], the “secretion of IL-6” value with DU145 cells was “suppress secretion”. Besides, in series [1], the “NF-κB-dependent luciferase activity induced by expression of IKKi, TBK1, IKKb and p65” value is given as “potent effects”.
